The conditions of series [1]: relative to benzoapyrene; Nisbet and Lagoy 1992; cited from earlier work.
The subject of a further series is Chironomidae. The conditions noted are these: chronic toxicity data, PAN Pesticide Database and EPA EcoTox Database; cited from earlier work.
Another series has as its system Frog. The note with it: chronic toxicity data, PAN Pesticide Database and EPA EcoTox Database; cited from earlier work.
In a further series the test system is Mussel. The note with it: chronic toxicity data, PAN Pesticide Database and EPA EcoTox Database; cited from earlier work.
For series [2], the system named is 95% of species in the protected water ecological system. The series is described as follows: Calculation of HC5 from log-transformed NOEC data. The note with it: HC5=exp(Xm-KLSm), six species, KL 1.81. An excerpt:
(3) calculating benzoapyrene concentration values HC5 of 95% of species in the protected water ecological system: i.e., performing logarithmic transformation on the toxicity data and applying a formula HC5=exp(Xm−KLSm)′ to calculate, wherein m is the number of species, Xm means the arithmetic mean value of the toxicity data of the m species after the logarithmic transformation; Sm means the standard deviation of the toxicity data of the m species after the logarithmic transformation; and KL is a regulation factor, obtained from literature;
(3) Calculating the benzoapyrene concentration values HC5 of 95% of species in the protected water ecological system: logarithmic transformation is performed on the toxicity data in Table 1 to obtain that the arithmetic mean value Xm 3.77 ug/L and the standard deviation Sm 4.95 ug/L, and calculation is conducted using a formula HC5=exp(Xm−KLSm)i, wherein the regulation factor KL is 1.81 (from published literature: Aldenberg and Slob, Confidence limits for hazardous concentrations based on logistically distributed NOEC toxicity data, 1991), and the HC5 value is obtained as 0.0056 ug/L.

The subject of the next series is Barbel fish. The note with it: chronic toxicity data, PAN Pesticide Database and EPA EcoTox Database; cited from earlier work.
The subject of another series is Daphnia magna. The note with it: chronic toxicity data, PAN Pesticide Database and EPA EcoTox Database; cited from earlier work.
The next series concerns Green algae. The conditions noted are these: chronic toxicity data, PAN Pesticide Database and EPA EcoTox Database; cited from earlier work.
Series [3] deals with water ecological system of the lake. The series is described as follows: Ecological risk quotient, Monte Carlo sampling (10,000 times). The conditions noted are these: single pollutant, water body of the lake. The source says: (5) calculating ecological risk quotient values RQi of specific polycyclic aromatic hydrocarbon pollutants: calculating according to a formula
[formula] wherein ECi is the environmental concentration of an i^th polycyclic aromatic hydrocarbon pollutant, TEFi is a toxic equivalency factor of the i^th polycyclic aromatic hydrocarbon pollutant relative to the benzoapyrene, and a concrete numerical value is from literature, and HC5 is the benzoapyrene concentration values of 95% of species in the protected water ecological system; conducting random sampling for 10,000 times using a Monte Carlo sampling method according to the concentration distribution characteristics of different polycyclic aromatic hydrocarbons; and drawing cumulative probability distribution curves of the ecological risk quotient values of each polycyclic aromatic hydrocarbon pollutant according to the Monte Carlo sampling result, and analyzing the probability that the risk quotient values thereof RQi are no less than one; and
(6) calculating the total ecological risk quotient value RQt of each polycyclic aromatic hydrocarbon pollutant: calculating according to a formula […]

Molecules are shown by their SMILES.

Take `c1cc2c3c(cccc3c1)CC2` [Ace]: in series [1], the Toxic equivalency factor is 0.001.

With `C1=Cc2cccc3cccc1c23` [Acy], the Toxic equivalency factor in series [1] is 0.001.

Regarding `c1ccc2cc3ccccc3cc2c1` [Ant, anthracene], the Toxic equivalency factor in series [1] was 0.01.

Consider `c1ccc2c(c1)cc1ccc3cccc4ccc2c1c34` [B[a]P, benzoapyrene], for which the NOEC was 5 µg/L in the series with Chironomidae; 10 µg/L in the series with Frog; 500 µg/L in the series on Mussel; 54.2 µg/L in the series with Barbel fish; 0.02 µg/L with Daphnia magna; 250000 µg/L in the series on Green algae. Moreover, the Toxic equivalency factor in [1] is given as 1. Besides, the “HC5 (concentration value of 95% of species in the protected water ecological system)” value in series [2] is 0.0056 ug/L. Besides, in [3], the “probability of the risk quotient value RQi greater than or equal to one” value was determined as 54.4%.

`c1ccc2c(c1)-c1cccc3c1c-2cc1ccccc13` [B[b]F]: in series [1], the Toxic equivalency factor was 0.1.

With `c1cc2ccc3ccc4ccc5cccc6c(c1)c2c3c4c56` [B[ghi]P], the Toxic equivalency factor in [1] is 0.01.

With `c1ccc2cc3c(cc2c1)-c1cccc2cccc-3c12` [B[k]F], in series [1], the Toxic equivalency factor is given as 0.1.

Regarding `c1ccc2c(c1)ccc1c3ccccc3ccc21` [Chr], the Toxic equivalency factor in [1] was 0.01.

Turning to `c1ccc2c(c1)ccc1cc3c(ccc4ccccc43)cc12` [DBA], in [1], the Toxic equivalency factor is recorded as 1. For the same compound, the “probability of the risk quotient value RQi greater than or equal to one” value in [3] is on record as 61.8%.

With `c1ccc2c(c1)-c1ccc3ccc4cccc5cc-2c1c3c45` [Ind], the Toxic equivalency factor in series [1] is listed as 0.1.

Turning to `c1ccc2ccccc2c1` [Nap], in series [1], the Toxic equivalency factor is on record as 0.001.

These data come from patent US10156556B2, “Method for determining ecological risks of polycyclic aromatic hydrocarbon in water body” (priority 2013, dated 2018).
